Laboratory results published in US20250360111A1, “COMPOSITIONS OF AGPAT4 INHIBITORS AND METHODS OF USING THEREOF TO TREAT CANCER” (The University of Hong Kong, priority 2024, published 2025).
Substitutions are numbered along the chain they refer to.

Legend:
[1] = system: AGPAT4; assay: Competitive gel-based ABPP in live cells with CL26-alkyne probe; type: cell-based, human; settings: Huh7 cells, empty vector vs FLAG-AGPAT4; silver staining of enriched proteins
Procedure: An in-gel fluorescence assay was performed to investigate the protein targets of CL26. Huh7 cells overexpressing AGPAT4 or cysteine mutants were pre-treated with CL26 at the indicated concentrations for 2 h, followed by CL26-alkyne (1 μM) treatment for another 2 h. Cells were harvested in RIPA buffer supplemented with protease and phosphatase inhibitors (Thermo Fisher Scientific #A32961). The proteins were precipitated by incubation with 6× volume of pre-chilled acetone at −20° C. overnight. Proteins were pelleted by centrifugation at 5000 g for 10 min and resuspended in PBS. The protein content was measured using the BCA assay and normalized to 2 mg/mL. Cell lysates (50 μL) were labelled with azide-fluor 545 by click reaction (final reaction mixture: azide-fluor 545 (25 μM), copper(II) sulfate (1 mM), TBTA (100 μM), and freshly prepared TCEP (1 mM)) at room temperature with constant agitation. After incubation for 1 h, the reaction was quenched with the sampling buffer and boiled at 90° C. for 5 min. Samples were subjected to SDS-PAGE, in-gel fluorescence was captured using ChemiDoc MP (Bio-Rad), and Coomassie Blue staining was performed. Similarly, immunoblotting was used to investigate the protein targets of CL26. Huh7 cells stably transfected with FLAG-AGPAT4 were pre-treated with either the solvent control or CL26 at the indicated concentrations for 2 h, followed by CL26-alkyne (10 μM) treatment for another 2 h. Cells were harvested, and lysates were prepared as described above unless specified. Anti-FLAG M 2 affinity beads were added in FLAG-tag pull-down experiments. After 4 h of incubation at 4° C., the beads were washed with TBS-T and resuspended in TBS-T. Sampling buffer was added and the samples were boiled for protein elution. The samples were subjected to SDS-PAG E and imaged for fluorescence signals before western blot analysis. In the probe pull-down experiment, 1 mL of lysate was labelled with desthiobiotin (DTB)-azide by a click reaction (final reaction mixture: copper(II) sulfate (1 mM), TBTA (100 μM), DTB-PEG-azide (100 μM), and freshly prepared TCEP (1 mM)). […]

[2] = system: AGPAT LPAAT family members (AGPAT1, 2, 3, 4 and 5); assay: Isoform specificity: streptavidin pulldown and immunoblotting of CL26-alkyne-bound proteins; type: cell-based, human; settings: Huh7 cells, DTB-PEG-azide, streptavidin pulldown
Procedure: An in-gel fluorescence assay was performed to investigate the protein targets of CL26. Huh7 cells overexpressing AGPAT4 or cysteine mutants were pre-treated with CL26 at the indicated concentrations for 2 h, followed by CL26-alkyne (1 μM) treatment for another 2 h. Cells were harvested in RIPA buffer supplemented with protease and phosphatase inhibitors (Thermo Fisher Scientific #A32961). The proteins were precipitated by incubation with 6× volume of pre-chilled acetone at −20° C. overnight. Proteins were pelleted by centrifugation at 5000 g for 10 min and resuspended in PBS. The protein content was measured using the BCA assay and normalized to 2 mg/mL. Cell lysates (50 μL) were labelled with azide-fluor 545 by click reaction (final reaction mixture: azide-fluor 545 (25 μM), copper(II) sulfate (1 mM), TBTA (100 μM), and freshly prepared TCEP (1 mM)) at room temperature with constant agitation. After incubation for 1 h, the reaction was quenched with the sampling buffer and boiled at 90° C. for 5 min. Samples were subjected to SDS-PAGE, in-gel fluorescence was captured using ChemiDoc MP (Bio-Rad), and Coomassie Blue staining was performed. Similarly, immunoblotting was used to investigate the protein targets of CL26. […] The samples were subjected to SDS-PAG E and imaged for fluorescence signals before western blot analysis. […]

[3] = biological target: T1, acyltransferase activity of AGPAT4 (Homo sapiens, UniProt Q9NRZ5); assay: LPA to PA conversion assay; type: biochemical
T1 construct: The open reading frame (ORF) encoding the mRNA of AGPAT4 was cloned into the pDONR-221 donor vector; expressed in transfected cells; host or cells: Huh7 (lentiviral pEZ-Lv199-AGPAT4); also sorafenib-resistant HepG2 (endogenous AGPAT4)
T1 sequence (Q9NRZ5 1-378): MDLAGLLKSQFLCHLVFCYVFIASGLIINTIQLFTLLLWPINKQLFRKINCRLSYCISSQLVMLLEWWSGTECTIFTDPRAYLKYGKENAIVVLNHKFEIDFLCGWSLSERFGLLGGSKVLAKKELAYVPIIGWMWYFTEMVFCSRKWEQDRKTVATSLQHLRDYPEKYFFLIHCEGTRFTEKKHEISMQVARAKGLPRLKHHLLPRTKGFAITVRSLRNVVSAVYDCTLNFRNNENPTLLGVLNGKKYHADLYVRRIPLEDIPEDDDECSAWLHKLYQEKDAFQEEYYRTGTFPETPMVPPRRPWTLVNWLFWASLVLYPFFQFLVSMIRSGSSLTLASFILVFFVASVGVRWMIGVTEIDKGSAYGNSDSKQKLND
Procedure: (§1) Enzyme activity was measured by quantifying the conversion of [3H]-LPA to [3H]-PA following the protocol outlined in a previous study (43). Briefly, the enzymatic reaction was prepared by combining 10 μmol/L 18:1 Lyso PA (Avanti Polar Lipids), 50 μmol/L oleoyl CoA (Sigma-Aldrich), 1 μL 1-oleoyl-[oleoyl-9,10^−3H]-LPA (specific activity 30-60 Ci/mmol; PerkinElmer), and 1 mg/mL fatty acid-free BSA in 200 μL 100 mM Tris-HCl buffer at pH 7.4. The reaction was initiated by adding 30 μg of total protein (cell lysate) and incubating the mixture at 37° C. for 10 min. To stop the reaction, 0.5 mL of 1-butanol containing 1 M HCl was added to extract phospholipids to stop the reaction. The butanol extract was then dried under vacuum, and the LPA and PA were separated using a solvent system consisting of chloroform, methanol, acetic acid, and water (25:10:3:1). Radioactive spots were identified by comparing their migration with unlabelled LPA and PA standards and visualized using iodine vapours. The spots corresponding to [3H]-LPA and [3H]-PA were scraped and their radioactivity was measured using a Tri-Carb Liquid Scintillation Counter 4810 (PerkinElmer Life Sciences).

[4] = biological target: T2, acyltransferase activity of AGPAT4 (Homo sapiens, UniProt Q9NRZ5, C228A); assay: LPA to PA conversion assay; type: biochemical; settings: Huh7 cells, AGPAT4 C228A mutant
T2 construct: The open reading frame (ORF) encoding the mRNA of AGPAT4 was cloned into the pDONR-221 donor vector; expressed in transfected cells; host or cells: Huh7 (lentiviral pEZ-Lv199-AGPAT4)
T2 sequence (Q9NRZ5 1-378 C228A): T1 sequence (Q9NRZ5 1-378) with C228A
Procedure: as §1

SMILES: O=C(CCl)NCc1ccc(-c2nc3ccccc3s2)o1 [CL26, N-[[5-(2-benzothiazolyl)-2-furanyl]methyl]-2-chloroacetamide]
- off-target binding [1]: minimal off-target binding
- specificity for AGPAT4 over other AGPAT LPAAT family members [2]: only targets AGPAT4 and no other related AGPAT isoforms
- inhibition of acyltransferase activity (LPA to PA conversion) ([3]; Huh7 cells overexpressing AGPAT4 and sorafenib-resistant HepG2 cells): inhibition of acyltransferase activity of AGPAT4 in vitro was verified
- inhibition of acyltransferase activity (PA conversion assay) in tumors ([3]; sorafenib-resistant HCC PDX model #2): inhibitory effect of CL26 on acyltransferase activity in sorafenib-resistant PDX was confirmed
- LPA to PA conversion vs DMSO control [4]: did not show difference in LPA to PA conversion
